In patent US10988477B2 (Merck Patent GmbH, priority 2018, dated 2021):

Target: GCN2 kinase (Homo sapiens, UniProt Q9P2K8)
Experiment: GCN2 enzyme inhibition assay (Transcreener ADP2 fluorescence polarization)
Assay type: biochemical
Settings: Enzyme activity for compounds of Formula IV; Ki(app), 280 μM ATP, 25° C.
Procedure, shortened: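 Inhibition of 4 nM GCN2 was measured with compound up to 8 μM final, ATP 280 μM and (RS)7 peptide 200 μM over a 1 h, 25 °C reaction. ADP FP readout; IC50 and Ki(app) calculated from percent inhibition.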

GCN2 kinase, sequence (Q9P2K8 whole entry): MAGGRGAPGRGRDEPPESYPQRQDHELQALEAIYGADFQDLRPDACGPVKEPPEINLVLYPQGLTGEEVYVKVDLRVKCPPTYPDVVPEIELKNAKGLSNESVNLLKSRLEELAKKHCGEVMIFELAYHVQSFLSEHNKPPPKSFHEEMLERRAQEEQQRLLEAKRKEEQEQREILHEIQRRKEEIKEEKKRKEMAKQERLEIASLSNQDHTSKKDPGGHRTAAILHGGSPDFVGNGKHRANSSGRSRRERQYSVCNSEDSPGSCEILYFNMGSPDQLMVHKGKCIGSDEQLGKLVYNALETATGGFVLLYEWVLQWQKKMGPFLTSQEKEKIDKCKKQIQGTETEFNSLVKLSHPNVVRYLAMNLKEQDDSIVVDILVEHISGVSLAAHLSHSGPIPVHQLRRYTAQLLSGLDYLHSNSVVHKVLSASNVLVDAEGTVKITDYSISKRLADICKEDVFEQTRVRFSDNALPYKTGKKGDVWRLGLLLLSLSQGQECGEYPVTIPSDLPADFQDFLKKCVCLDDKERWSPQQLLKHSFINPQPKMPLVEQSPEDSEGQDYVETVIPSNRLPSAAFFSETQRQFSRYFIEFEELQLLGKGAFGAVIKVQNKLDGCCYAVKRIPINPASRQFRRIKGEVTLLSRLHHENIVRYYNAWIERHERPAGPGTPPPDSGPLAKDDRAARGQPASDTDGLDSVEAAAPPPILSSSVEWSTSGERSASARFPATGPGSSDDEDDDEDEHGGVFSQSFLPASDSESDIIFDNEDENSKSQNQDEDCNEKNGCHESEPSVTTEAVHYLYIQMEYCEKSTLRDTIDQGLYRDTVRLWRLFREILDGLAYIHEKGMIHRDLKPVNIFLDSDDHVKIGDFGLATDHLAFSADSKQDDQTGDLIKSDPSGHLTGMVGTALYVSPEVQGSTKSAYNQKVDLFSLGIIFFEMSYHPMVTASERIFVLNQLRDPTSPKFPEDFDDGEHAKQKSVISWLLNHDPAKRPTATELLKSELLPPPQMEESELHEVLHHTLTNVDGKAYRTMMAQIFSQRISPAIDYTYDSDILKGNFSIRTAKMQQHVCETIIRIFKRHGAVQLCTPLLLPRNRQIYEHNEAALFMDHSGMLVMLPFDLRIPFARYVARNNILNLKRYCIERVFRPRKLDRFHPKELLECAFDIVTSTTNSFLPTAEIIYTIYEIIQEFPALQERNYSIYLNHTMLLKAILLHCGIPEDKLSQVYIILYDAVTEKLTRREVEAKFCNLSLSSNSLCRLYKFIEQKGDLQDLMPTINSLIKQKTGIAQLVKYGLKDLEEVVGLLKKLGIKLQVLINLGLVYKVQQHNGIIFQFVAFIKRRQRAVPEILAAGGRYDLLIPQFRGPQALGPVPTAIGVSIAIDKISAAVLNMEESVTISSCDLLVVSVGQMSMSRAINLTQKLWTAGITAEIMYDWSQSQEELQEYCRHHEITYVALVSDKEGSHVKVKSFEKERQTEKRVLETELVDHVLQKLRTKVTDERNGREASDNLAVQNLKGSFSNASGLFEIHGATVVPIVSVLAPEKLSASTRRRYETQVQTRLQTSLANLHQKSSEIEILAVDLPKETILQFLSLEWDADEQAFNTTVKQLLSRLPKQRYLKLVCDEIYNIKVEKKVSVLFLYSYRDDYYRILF

Ki | Compound
100 to 1000 nM | NC(=O)C1CN(c2ccnc(-c3cnc4cnc(C(F)(F)F)cn34)n2)CCN1 (stereo not drawn) [IV-595, 4-(2-(6-(Trifluoromethyl)imidazo[1,2-a]pyrazin-3-yl)pyrimidin-4-yl)piperazine-2-carboxamide]
100 to 1000 nM | CN1CCN(c2ccnc(-c3cnc4cnc(C(F)(F)F)cn34)n2)CC1C(N)=O (stereo not drawn) [IV-596, 1-Methyl-4-(2-(6-(trifluoromethyl)imidazo[1,2-a]pyrazin-3-yl)pyrimidin-4-yl)piperazine-2-carboxamide]
100 to 1000 nM | NC(=O)C1CCN(c2ccnc(-c3cnc4cnc(C(F)(F)F)cn34)n2)C1 (stereo not drawn) [IV-598, 1-(2-(6-(Trifluoromethyl)imidazo[1,2-a]pyrazin-3-yl)pyrimidin-4-yl)pyrrolidine-3-carboxamide]
100 to 1000 nM | NC(=O)C1CN(c2ccnc(-c3cnc4cnc(C(F)(F)F)cn34)n2)CCO1 (stereo not drawn) [IV-599, 4-(2-(6-(Trifluoromethyl)imidazo[1,2-a]pyrazin-3-yl)pyrimidin-4-yl)morpholine-2-carboxamide]
100 to 1000 nM | FC(F)(F)c1cn2c(-c3nccc(N4CCCC(n5ccnn5)C4)n3)cnc2cn1 (stereo not drawn) [IV-600, 3-(4-(3-(1H-1,2,3-Triazol-1-yl)piperidin-1-yl)pyrimidin-2-yl)-6-(trifluoromethyl)imidazo[1,2-a]pyrazine]
100 to 1000 nM | O=C1CN(C2CCN(c3ccnc(-c4cnc5cnc(C(F)(F)F)cn45)n3)C2)CCN1 (stereo not drawn) [IV-602, 4-(1-(2-(6-(Trifluoromethyl)imidazo[1,2-a]pyrazin-3-yl)pyrimidin-4-yl)pyrrolidin-3-yl)piperazin-2-one]
100 to 1000 nM | C[S+]([O-])CC1CCN(c2ccnc(-c3cnc4cnc(C(F)(F)F)cn34)n2)C1 (stereo not drawn) [IV-603, 3-(4-(3-((Methylsulfinyl)methyl)pyrrolidin-1-yl)pyrimidin-2-yl)-6-(trifluoromethyl)imidazo[1,2-a]pyrazine]
100 to 1000 nM | CS(=O)(=O)CC1CCN(c2ccnc(-c3cnc4cnc(C(F)(F)F)cn34)n2)C1 (stereo not drawn) [IV-604, 3-(4-(3-((methylsulfonyl)methyl)pyrrolidin-1-yl)pyrimidin-2-yl)-6-(trifluoromethyl)imidazo[1,2-a]pyrazine]
100 to 1000 nM | NC(=O)CC1CCN(c2ccnc(-c3cnc4cnc(C(F)(F)F)cn34)n2)CC1 [IV-605, 2-(1-(2-(6-(Trifluoromethyl)imidazo[1,2-a]pyrazin-3-yl)pyrimidin-4-yl)piperidin-4-yl)acetamide]
100 to 1000 nM | FC(F)(F)c1cn2c(-c3nccc(N4CCC(Nc5cn[nH]c5)C4)n3)cnc2cn1 (stereo not drawn) [IV-606, N-(1-(2-(6-(Trifluoromethyl)imidazo[1,2-a]pyrazin-3-yl)pyrimidin-4-yl)pyrrolidin-3-yl)-1H-pyrazol-4-amine]
100 to 1000 nM | CS(=N)(=O)CC1CCN(c2ccnc(-c3cnc4cnc(C(F)(F)F)cn34)n2)C1 (stereo not drawn) [IV-607, Imino(methyl)((1-(2-(6-(trifluoromethyl)imidazo[1,2-a]pyrazin-3-yl)pyrimidin-4-yl)pyrrolidin-3-yl)methyl)-λ^6-sulfanone]
100 to 1000 nM | CC1CN(c2ccnc(-c3cnc4cnc(C(F)(F)F)cn34)n2)C(C)(C)C1 (stereo not drawn) [IV-610, 6-(Trifluoromethyl)-3-(4-(2,2,4-trimethylpyrrolidin-1-yl)pyrimidin-2-yl)imidazo[1,2-a]pyrazine]
100 to 1000 nM | NC(=O)C1CCN(c2ccnc(-c3cnc4cnc(C(F)(F)F)cn34)n2)CC1 [IV-611, 1-(2-(6-(Trifluoromethyl)imidazo[1,2-a]pyrazin-3-yl)pyrimidin-4-yl)piperidine-4-carboxamide]
100 to 1000 nM | NC(=O)N1CCN(c2ccnc(-c3cnc4cnc(C(F)(F)F)cn34)n2)CC1 [IV-612, 4-(2-(6-(Trifluoromethyl)imidazo[1,2-a]pyrazin-3-yl)pyrimidin-4-yl)piperazine-1-carboxamide]
100 to 1000 nM | CC1COC(CO)CN1c1ccnc(-c2cnc3cnc(C(F)(F)F)cn23)n1 (stereo not drawn) [IV-613, (5-Methyl-4-(2-(6-(trifluoromethyl)imidazo[1,2-a]pyrazin-3-yl)pyrimidin-4-yl)morpholin-2-yl)methanol]
10 to 100 nM | OCCCC1CCN(c2ccnc(-c3cnc4cnc(C(F)(F)F)cn34)n2)C1 (stereo not drawn) [IV-616, 3-(1-(2-(6-(Trifluoromethyl)imidazo[1,2-a]pyrazin-3-yl)pyrimidin-4-yl)pyrrolidin-3-yl)propan-1-ol]
100 to 1000 nM | OCCN1CCN(c2ccnc(-c3cnc4cnc(C(F)(F)F)cn34)n2)CC1 [IV-617, 2-(4-(2-(6-(Trifluoromethyl)imidazo[1,2-a]pyrazin-3-yl)pyrimidin-4-yl)piperazin-1-yl)ethan-1-ol]
100 to 1000 nM | O=C(CO)N1CCN(c2ccnc(-c3cnc4cnc(C(F)(F)F)cn34)n2)CC1 [IV-618, 2-Hydroxy-1-(4-(2-(6-(trifluoromethyl)imidazo[1,2-a]pyrazin-3-yl)pyrimidin-4-yl)piperazin-1-yl)ethan-1-one]
100 to 1000 nM | CC(C)(O)CN1CCN(c2ccnc(-c3cnc4cnc(C(F)(F)F)cn34)n2)CC1 [IV-619, 2-Methyl-1-(4-(2-(6-(trifluoromethyl)imidazo[1,2-a]pyrazin-3-yl)pyrimidin-4-yl)piperazin-1-yl)propan-2-ol]
100 to 1000 nM | N#CCCN1CCN(c2ccnc(-c3cnc4cnc(C(F)(F)F)cn34)n2)CC1 [IV-620, 3-(4-(2-(6-(Trifluoromethyl)imidazo[1,2-a]pyrazin-3-yl)pyrimidin-4-yl)piperazin-1-yl)propanenitrile]
100 to 1000 nM | CNC(=O)C1CCN(c2ccnc(-c3cnc4cnc(C(F)(F)F)cn34)n2)C1 (stereo not drawn) [IV-625, N-Methyl-1-(2-(6-(trifluoromethyl)imidazo[1,2-a]pyrazin-3-yl)pyrimidin-4-yl)pyrrolidine-3-carboxamide]
100 to 1000 nM | FC(F)(F)c1cn2c(-c3nccc(-n4ccc(C5CCCNC5)n4)n3)cnc2cn1 (stereo not drawn) [IV-634, 3-(4-(3-(Piperidin-3-yl)-1H-pyrazol-1-yl)pyrimidin-2-yl)-6-(trifluoromethyl)imidazo[1,2-a]pyrazine]
100 to 1000 nM | Cc1nc(C2CCN(c3ccnc(-c4cnc5cnc(C(F)(F)F)cn45)n3)C2)n[nH]1 (stereo not drawn) [IV-641, 3-(4-(3-(5-Methyl-1H-1,2,4-triazol-3-yl)pyrrolidin-1-yl)pyrimidin-2-yl)-6-(trifluoromethyl)imidazo[1,2-a]pyrazine]
100 to 1000 nM | FC(F)(F)c1cn2c(-c3nccc(N4CCC(c5nnc[nH]5)C4)n3)cnc2cn1 (stereo not drawn) [IV-642, 3-(4-(3-(4H-1,2,4-Triazol-3-yl)pyrrolidin-1-yl)pyrimidin-2-yl)-6-(trifluoromethyl)imidazo[1,2-a]pyrazine]
100 to 1000 nM | CC1CC(C)C(C)N(c2ccnc(-c3cnc4cnc(C(F)(F)F)cn34)n2)C1 (stereo not drawn) [IV-643, 6-(Trifluoromethyl)-3-(4-(2,3,5-trimethylpiperidin-1-yl)pyrimidin-2-yl)imidazo[1,2-a]pyrazine]
100 to 1000 nM | FC(F)(F)c1cn2c(-c3nccc(N4CCC(C5CCCC5)C4)n3)cnc2cn1 (stereo not drawn) [IV-644, 3-(4-(3-Cyclopentylpyrrolidin-1-yl)pyrimidin-2-yl)-6-(trifluoromethyl)imidazo[1,2-a]pyrazine]
100 to 1000 nM | OC1CCN(C2CCN(c3ccnc(-c4cnc5cnc(C(F)(F)F)cn45)n3)C2)CC1 (stereo not drawn) [IV-645, 1-(1-(2-(6-(Trifluoromethyl)imidazo[1,2-a]pyrazin-3-yl)pyrimidin-4-yl)pyrrolidin-3-yl)piperidin-4-ol]
